Test [1] is described as follows: Personal experience: general traits of components. As to conditions: from personal experience. From the text: (§1) From personal experience we have discovered the following traits associated with the specific components of the invention: […]
Test [2] is described as follows: Personal experience: component topically applied to the skin of the face. Format: in vivo.
Text: as §1

Test [3] in a line: Personal experience: component topically applied to scalds. Format: in vivo.
Text: as §1

As for `O=C1O[C@H]([C@@H](O)CO)C(O)=C1O` [Vitamin C], the “trait of the component” value in test [1] is “combating pain and inflammation”.
As for Vitamin A, in test [2], the “appearance of the skin” value was “improved appearance of the skin”.
In the case of Vitamin E, in test [3], the “pain and healing of the wound” value is “reduced pain and improved healing of the wound”.
